Data on 2 compounds can be found in patent publication EP0372541A1, “Method for imparting immunosuppression” (priority 1988, dated 1990).

Data set [1] has as its system mixed lymphocyte response. In words: Mixed lymphocyte response (MLR) assay, tritiated thymidine incorporation. In kind it is cell-based. To be noted: Figures 9 and 10; for inhibition of the mixed lymphocyte response in combination with cyclosporine: free acid added to cyclosporine; for inhibition of the mixed lymphocyte response in combination with methylprednisolone: free acid added to methylprednisolone. An excerpt:
The mixed lymphocyte response is a clinically useful predictor of the immunosuppressive activity of drugs.The mixed lymphocyte response assay data shown below and in Figures 7-10 were obtained with the following method. A stimulator panel of Epstein-Barr virus (EBV) transformed continuous lymphoblastoid cell lines was employed to magnify responses. There were equal numbers of four cell lines with eight different HLA-DR antigens (two per cell line). Stimulator cells were irradiated (13,000 rad) before suspension in a modified RPMI medium. Responder lymphocytes were prepared from heparinized recipient blood by density gradient separation before suspension in glutamine with antibiotic-supplemented RPMI medium containing 10% autologous serum. Equal numbers of responder and stimulator cells (1x 10⁵ in 0.1 ml) were incubated with 0.05 ml of medium (control) or varying concentrations of the three prostaglandin analogs (misoprostol, enisoprost and misoprostol-free acid) or methylprednisolone or cyclosporine or combinations of these agents.
Following incubation at 37°C and 5% CO₂ for five days, one microcurie of tritiated thymidine was added and cell cultures incubated for six hours. Cells were then harvested. MLR responses for the three different prostaglandin analogs were then compared for several different concentrations (Figure 7). The effects of the prostaglandins were also compared to those of the control ethanol diluent (Figure 8).

Data set [2] concerns cyclosporine-treated renal transplant recipients. In words: Randomized, double-blind, placebo controlled clinical study in renal transplant recipients on cyclosporine. The class given is in vivo, human. To be noted: for Acute Rejection / Creatinine / Creatinine Clearance: 200 µg Q.I.D. with cyclosporine. An excerpt: A randomized, double-blind, placebo controlled study was designed: (1) to determine the safety and efficacy of a PGE₁ prostaglandin in reducing cyclosporine-induced nephrotoxicity in renal transplant recipients; and (2) to examine the effects of the PGE₁ prostaglandin on the incidence rate of clinically important events such as acute transplant rejection.
The PGE, prostaglandin evaluated was misoprostol, ((±) methyl 11α, 16-dihydroxy-16-methyl-9-oxoprost-13E-en-1-oate). Subjects received the PGE₁ prostaglandin in dosages of 200 µg or a placebo four times a day (Q.I.D.) for the first twelve weeks following transplantation. A study population of 77 subjects was evaluated. Efficacy was assessed by a serial comparison of renal function and by measuring the duration and functional severity of transplant rejection, cyclosporine nephrotoxicity, and other episodes of acute renal failure in the PGE₁ prostaglandin and the placebo groups. Serial measurements of serum creatinine and creatinine clearance were used to determine trends and differences in renal function between treatment groups.
The subjects in the clinical study were first stratified into two groups according to the source of the allograft, cadaver or living-related donor. Members of each group were assigned at random in the order of enrollment to receive the PGE₁ prostaglandin or the placebo according to a computer-generated assignment schedule prepared prior to the start of the study. The purpose of this approach was to guarantee adequate randomization of subjects as a function of allograft source and probable post-transplantation function.
The administration of the prostaglandin began with the first dose of cyclosporine. The subjects received the .prostaglandin Q.I.D. given 30-60 minutes p.c. (after a meal) and h.s. (at night). The prostaglandin initially could be administered via a nasogastric tube. Following discharge of the patient from the hospital. the patient began to administer the placebo or prostaglandin and recording the dosing in a diary. The test article dosing remained one tablet Q.I D. continuing the 30-60 minute p.c and h.s. schedule.
Hematology and chemistry profiles were obtained on the first and seventh post-transplantation days and again after four weeks. A chemistry profile was obtained at eight and twelve weeks. A urinalysis was obtained on the first post-operative day and again after four weeks.
Twenty-four hour creatinine clearance measurements were obtained on post-operative days one, three, and seven, then weekly for three weeks and at four week intervals thereafter until the study was terminated.
Serum creatinine measurements were obtained on postoperative days 1, 3 and 7, and then at weeks 4, 8, 12 and 16.
Measurement of trough cyclosporine levels were required on days one, three, five and seven; twice during each of weeks two, three and four; and at least once during weeks eight, twelve and sixteen.
Acute renal failure was defined as the presence of any of the following: • 1) Any change in renal function which prompted the principal investigator to perform a diagnostic maneuver (e.g., measure of serum creatinine concentration or urinary sodium concentration) or therapeutic maneuver (e.g., give intravenous fluids) to investigate or treat the change. • 2) A rise in serum creatinine concentration from a stable base line of at least 0.2 mg/dl/day for two days or 0.3 mg/dl in one day. • 3) A fall in urine output to less than an average of 25 ml per hour for more than 24 hours.
After twelve weeks of treatment and four additional weeks of observation, the subject underwent a physical examination and a complete medical history was reviewed. The following laboratory tests were also obtained: hematology, PT/PTT, chemistry, urinalysis. creatinine clearance, cyclosporine level and serum beta HCG (where appropriate). In addition, any other measurements of creatinine concentration or clearance obtained during the post-treatment period were recorded.

The mark [3] stands for this setting: listed as PGE₁ prostaglandin free acid.
Setting [4] is: 1 Month after renal transplantation.
Where [5] appears, read: 2 Months after renal transplantation.
Setting [6] is: 3 Months after renal transplantation.

In the case of `CCCCC(C)(O)CC=CC1C(O)CC(=O)C1CCCCCCC(=O)O` (racemic) [misoprostol free acid], in data set [1], the “inhibition of the mixed lymphocyte response in combination with cyclosporine” value was “clear evidence of enhancement of immunosuppressive activity” and the “inhibition of the mixed lymphocyte response in combination with methylprednisolone” value is “clear evidence of enhancement of immunosuppressive activity”. In addition, in data set [1] (setting [3]), the “inhibition of the mixed lymphocyte response in combination with cyclosporine” value was “larger than additive effect” and the “inhibition of the mixed lymphocyte response in combination with methylprednisolone” value is listed as “larger than additive effect”.

As to `CCCCC(C)(O)C/C=C/[C@H]1[C@H](O)CC(=O)[C@@H]1CCCCCCC(=O)OC` (mixture of isomers) [PGE₁, (±) methyl 11α, 16-dihydroxy-16-methyl-9-oxoprost-13E-en-1-oate], in data set [2] (setting [4]), the “Acute Rejection” value stood at 3 first episode/mo, the Creatinine came to 1.6 ± 0.2 mg/dL and the “Creatinine Clearance” value is 73 ± 5 ml/min/1.73m2. For the same compound, in data set [2] (setting [5]), the “Acute Rejection” value is reported as 2 first episode/mo, the Creatinine came to 1.4 ± 0.1 mg/dL and the “Creatinine Clearance” value is on record as 77 ± 6 ml/min/1.73m2. Moreover, in data set [2] (setting [6]), the “Acute Rejection” value is 2 first episode/mo, the Creatinine was 1.4 ± 0.1 mg/dL and the “Creatinine Clearance” value worked out at 81 ± 5 ml/min/1.73m2. The renal function entry in data set [2] (cyclosporine-treated renal transplant recipients, versus placebo) is on record as “improved renal function”. For the same compound, the “acute rejection versus placebo” value in data set [2] (during the three months of treatment, p = 0.015) was “significantly reduced”. In data set [2] (human, in vivo), the “cyclosporine absorption (cyclosporine dosage and trough blood levels by HPLC)” value is “no interference with cyclosporine absorption”. In addition, the “cyclosporine nephrotoxicity (incidence rate of first episodes)” value in data set [2] (versus placebo, Figure 5) was “no increase in cyclosporine nephrotoxicity”.
